Tests used:
[1] = molecular target: human Bruton's Tyrosine Kinase (Btk) (Homo sapiens (Human), UniProt Q06187); assay: Recombinant Human Bruton's Tyrosine Kinase (Btk) Inhibition Assay (HTRF KinEASE-TK); type: biochemical; conditions: 20 ng/ml rhBtk, 77 μM ATP (KM), 1 μM TK-Biotin substrate, 90 min; read-out: hBTK IC50
[2] = test system: mouse splenocytes; assay: Inhibition of B Cell Activation as Measured by CD69 Expression in Mouse Splenocytes; type: cell-based; conditions: Splenocyte; C57/BL6 splenocytes, 3 ug/mL goat anti-mouse IgM, 18-20 hrs, CD69+ve cells within CD19; read-out: Mouse spleenocyte IC50
Description: Inhibition of B Cell Activation as Measured by CD69 Expression in Mouse Splenocytes:
To test the effect of BTK inhibitors in suppressing B-cell receptor (BCR) mediated activation of B cells, we developed a flow cytometry based assay to analyze CD69 expression in B cell population among total splenocyte from the mouse. […] Finally, cell were cultured in RPMI medium with 10% FBS.
Test compounds were diluted half log starting from 2 mM in 100% DMSO (200×). 1×10^5 splenocytes were incubated with 1 uL of diluted test compounds in 200 uL culture medium in a U-bottom 96 well plate (Greiner) at 37° C. with 5% CO2 for 30 mins. Control wells received 1 uL of 100% DMSO without any compound. The cells were stimulated with 3 ug/mL goat anti-mouse IgM (Sigma, cat#M8644) and incubated for 18-20 hrs. […] Then the cells were washed 3 times with PBS with 1% FBS and analyzed by Guava Easycyte Mini flow cytometer system (Millipore). Flow cytometry data were analyzed using Weasel software (WEHI, Melbourne). First B cells were gated using CD19 markers. Then expression of CD69 was analyzed as percentage of CD69+ve cells within CD19. Percent activity for each data point was calculated using following formula: […]
Percentage activity was fit using sigmoid dose response with variable slope logistic equation in Graph-pad Prism 5 software to determine inhibition constant 50 (IC50).

Chain of human Bruton's Tyrosine Kinase (Btk) (Q06187 whole entry): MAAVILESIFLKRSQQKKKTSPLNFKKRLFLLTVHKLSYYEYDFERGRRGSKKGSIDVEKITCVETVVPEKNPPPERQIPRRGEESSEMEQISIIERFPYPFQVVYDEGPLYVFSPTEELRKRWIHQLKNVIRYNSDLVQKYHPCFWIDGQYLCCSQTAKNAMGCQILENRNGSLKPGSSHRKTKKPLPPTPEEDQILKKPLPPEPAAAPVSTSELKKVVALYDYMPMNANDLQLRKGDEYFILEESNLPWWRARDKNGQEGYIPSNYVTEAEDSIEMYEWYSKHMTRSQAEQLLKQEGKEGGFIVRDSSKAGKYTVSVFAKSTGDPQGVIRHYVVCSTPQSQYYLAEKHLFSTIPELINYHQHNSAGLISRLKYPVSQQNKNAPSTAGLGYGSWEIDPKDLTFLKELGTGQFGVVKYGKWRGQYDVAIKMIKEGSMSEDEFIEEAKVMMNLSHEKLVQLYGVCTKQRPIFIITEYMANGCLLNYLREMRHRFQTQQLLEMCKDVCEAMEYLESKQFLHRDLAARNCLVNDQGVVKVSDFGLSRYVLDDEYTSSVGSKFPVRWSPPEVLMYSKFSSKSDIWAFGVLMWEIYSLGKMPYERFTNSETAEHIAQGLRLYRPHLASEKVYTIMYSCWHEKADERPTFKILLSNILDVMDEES

Row | IC50 [1] | IC50 [2] | SMILES
1 | 6.5 nM | 97 nM | CC(C)N1CC(n2cc(-c3cc4c(-c5cccc(N6CCOc7cc(C8CC8)ccc7C6=O)c5CO)ccnc4[nH]3)cn2)C1 [Example D-8, 8-cyclopropyl-4-[2-(hydroxymethyl)-3-[2-[1-(1-isopropylazetidin-3-yl)pyrazol-4-yl]-1H-pyrrolo[2,3-b]pyridin-4-yl]phenyl]-2,3-dihydro-1,4-benzoxazepin-5-one]
2 | 2 nM | 14.6 nM | CN(C)C(=O)N1CC=C(c2cc3c(-c4cccc(N5CCOc6cc(C7CC7)ccc6C5=O)c4CO)ccnc3[nH]2)CC1 [Example P-5, 4-[4-[3-(8-cyclopropyl-5-oxo-2,3-dihydro-1,4-benzoxazepin-4-yl)-2-(hydroxymethyl)phenyl]-1H-pyrrolo[2,3-b]pyridin-2-yl]-N,N-dimethyl-3,6-dihydro-2H-pyridine-1-carboxamide]
3 | 1 nM | 5.8 nM | CN(C)C(=O)N1CC=C(c2cc3c(-c4cccc(N5CCOc6cc(C7CC7)cc(F)c6C5=O)c4CO)ccnc3[nH]2)CC1 [Example P-14, 4-[4-[3-(8-cyclopropyl-6-fluoro-5-oxo-2,3-dihydro-1,4-benzoxazepin-4-yl)-2-(hydroxymethyl)phenyl]-1H-pyrrolo[2,3-b]pyridin-2-yl]-N,N-dimethyl-3,6-dihydro-2H-pyridine-1-carboxamide]
4 | 8 nM | 67 nM | CC1(O)CCN(C(=O)c2ccc(-c3cc4c(-c5cccc(N6CCOc7cc(C8CC8)ccc7C6=O)c5CO)ccnc4[nH]3)nc2)CC1 [Example L-1, 8-cyclopropyl-4-[2-(hydroxymethyl)-3-[2-[5-(4-hydroxy-4-methyl-piperidine-1-carbonyl)-2-pyridyl]-1H-pyrrolo[2,3-b]pyridin-4-yl]phenyl]-2,3-dihydro-1,4-benzoxazepin-5-one]
5 | 1 nM | 5 nM | CN1CCN(Cc2ccc(-c3cc4c(-c5cccc(N6CCOc7cc(C8CC8)cc(F)c7C6=O)c5CO)ccnc4[nH]3)nc2)CC1 [Example I-2, 8-cyclopropyl-6-fluoro-4-[2-(hydroxymethyl)-3-[2-[5-[(4-methylpiperazin-1-yl)methyl]-2-pyridyl]-1H-pyrrolo[2,3-b]pyridin-4-yl]phenyl]-2,3-dihydro-1,4-benzoxazepin-5-one]
6 | 1.3 nM | 8 nM | CC(O)C(=O)N1CC=C(c2cc3c(-c4cccc(N5CCOc6cc(C7CC7)cc(F)c6C5=O)c4CO)ccnc3[nH]2)CC1 (stereo not drawn) [Example P-29, 8-cyclopropyl-6-fluoro-4-[2-(hydroxymethyl)-3-[2-[1-(2-hydroxypropanoyl)-3,6-dihydro-2H-pyridin-4-yl]-1H-pyrrolo[2,3-b]pyridin-4-yl]phenyl]-2,3-dihydro-1,4-benzoxazepin-5-one]
7 | 0.75 nM | 51 nM | CCN1CC(C(=O)N2CC=C(c3cc4c(-c5cccc(N6CCOc7cc(C8CC8)cc(F)c7C6=O)c5CO)ccnc4[nH]3)CC2)C1 [Example R-5, 8-cyclopropyl-4-[3-[2-[1-(1-ethylazetidine-3-carbonyl)-3,6-dihydro-2H-pyridin-4-yl]-1H-pyrrolo[2,3-b]pyridin-4-yl]-2-(hydroxymethyl)phenyl]-6-fluoro-2,3-dihydro-1,4-benzoxazepin-5-one]
8 | 6 nM | 94 nM | CN(C)C(=O)N1CC=C(c2cc3c(-c4cccc(N5CCOc6cc(C(C)(C)O)ccc6C5=O)c4CO)ccnc3[nH]2)CC1 [Example P-10, 4-[4-[2-(hydroxymethyl)-3-[8-(1-hydroxy-1-methyl-ethyl)-5-oxo-2,3-dihydro-1,4-benzoxazepin-4-yl]phenyl]-1H-pyrrolo[2,3-b]pyridin-2-yl]-N,N-dimethyl-3,6-dihydro-2H-pyridine-1-carboxamide]
9 | 4 nM | 59 nM | O=C1c2c(F)cc(C3CC3)cc2OCCN1c1cccc(-c2ccnc3[nH]c(C4=CCN(C5CCOC5)CC4)cc23)c1CO (stereo not drawn) [Example P-21, 8-cyclopropyl-6-fluoro-4-[2-(hydroxymethyl)-3-[2-(1-tetrahydrofuran-3-yl-3,6-dihydro-2H-pyridin-4-yl)-1H-pyrrolo[2,3-b]pyridin-4-yl]phenyl]-2,3-dihydro-1,4-benzoxazepin-5-one]
10 | 3 nM | 19 nM | CN1CCC(c2ccc(-c3cc4c(-c5cccc(-n6ccc7cc(C8CC8)ccc7c6=O)c5CO)ncnc4[nH]3)cc2)CC1 [Example D-4, 6-cyclopropyl-2-[2-(hydroxymethyl)-3-[6-[4-(1-methyl-4-piperidyl)phenyl]-7H-pyrrolo[2,3-d]pyrimidin-4-yl]phenyl]isoquinolin-1-one]
11 | 6 nM | 52 nM | CCN1CCN(Cc2ccc(-c3cc4c(-c5cccc(N6CCOc7cc(C8CC8)ccc7C6=O)c5CO)ncnc4[nH]3)cc2)CC1 [Example B-7, 8-cyclopropyl-4-[3-[6-[4-[(4-ethylpiperazin-1-yl)methyl]phenyl]-7H-pyrrolo[2,3-d]pyrimidin-4-yl]-2-(hydroxymethyl)phenyl]-2,3-dihydro-1,4-benzoxazepin-5-one]
12 | 21 nM | 175 nM | Cc1c(-c2ncnc3[nH]c(-c4ccc(N5CCN(C)CC5)cc4)cc23)cccc1N1CCOc2cc(C3CC3)ccc2C1=O [Example C-3, 8-cyclopropyl-4-[2-methyl-3-[6-[4-(4-methylpiperazin-1-yl)phenyl]-7H-pyrrolo[2,3-d]pyrimidin-4-yl]phenyl]-2,3-dihydro-1,4-benzoxazepin-5-one]
13 | 3 nM | 51 nM | CN1CCC(Oc2ccc(-c3cc4c(-c5cccc(N6CCOc7cc(C8CC8)ccc7C6=O)c5CO)ncnc4[nH]3)cc2)CC1 [Example G-1, 8-cyclopropyl-4-[2-(hydroxymethyl)-3-[6-[4-[(1-methyl-4-piperidyl)oxy]phenyl]-7H-pyrrolo[2,3-d]pyrimidin-4-yl]phenyl]-2,3-dihydro-1,4-benzoxazepin-5-one]
14 | 3 nM | 70 nM | O=C1c2ccc(C3CC3)cc2OCCN1c1cccc(-c2ccnc3[nH]c(-c4cnn(C5COC5)c4)cc23)c1CO [Example F-1, 8-cyclopropyl-4-[2-(hydroxymethyl)-3-[2-[1-(oxetan-3-yl)pyrazol-4-yl]-1H-pyrrolo[2,3-b]pyridin-4-yl]phenyl]-2,3-dihydro-1,4-benzoxazepin-5-one]
15 | 3 nM | 36 nM | CS(=O)(=O)N1CCN(Cc2ccc(-c3cc4c(-c5cccc(N6CCOc7cc(C8CC8)ccc7C6=O)c5CO)ccnc4[nH]3)nc2)CC1 [Example I-6, 8-cyclopropyl-4-[2-(hydroxymethyl)-3-[2-[5-[(4-methylsulfonylpiperazin-1-yl)methyl]-2-pyridyl]-1H-pyrrolo[2,3-b]pyridin-4-yl]phenyl]-2,3-dihydro-1,4-benzoxazepin-5-one]
16 | 1.6 nM | 70 nM | CN1CC(N2CC=C(c3cc4c(-c5cccc(N6CCOc7cc(C8CC8)cc(F)c7C6=O)c5CO)ccnc4[nH]3)CC2)C1 [Example R-4, 8-cyclopropyl-6-fluoro-4-[2-(hydroxymethyl)-3-[2-[1-(1-methylazetidin-3-yl)-3,6-dihydro-2H-pyridin-4-yl]-1H-pyrrolo[2,3-b]pyridin-4-yl]phenyl]-2,3-dihydro-1,4-benzoxazepin-5-one]
17 | 32 nM | 815 nM | Cc1c(-c2ncnc3[nH]c(-c4ccc(C(=O)N5CCC(O)CC5)cc4)cc23)cccc1N1CCOc2cc(C3CC3)ccc2C1=O [Example K-2, 8-cyclopropyl-4-[3-[6-[4-(4-hydroxypiperidine-1-carbonyl)phenyl]-7H-pyrrolo[2,3-d]pyrimidin-4-yl]-2-methyl-phenyl]-2,3-dihydro-1,4-benzoxazepin-5-one]
18 | 1.5 nM | 21 nM | CCN1CC(N2CC=C(c3cc4c(-c5cccc(N6CCOc7cc(C8CC8)cc(F)c7C6=O)c5CO)ccnc4[nH]3)CC2)C1 [Example R-2, 8-cyclopropyl-4-[3-[2-[1-(1-ethylazetidin-3-yl)-3,6-dihydro-2H-pyridin-4-yl]-1H-pyrrolo[2,3-b]pyridin-4-yl]-2-(hydroxymethyl)phenyl]-6-fluoro-2,3-dihydro-1,4-benzoxazepin-5-one]
19 | 7 nM | 31 nM | O=C1c2ccc(C3CC3)cc2OCCN1c1cccc(-c2ccnc3[nH]c(-c4ccc(CN5CCN(S(=O)(=O)C6CC6)CC5)cn4)cc23)c1CO [Example I-10, 8-cyclopropyl-4-[3-[2-[5-[(4-cyclopropylsulfonylpiperazin-1-yl)methyl]-2-pyridyl]-1H-pyrrolo[2,3-b]pyridin-4-yl]-2-(hydroxymethyl)phenyl]-2,3-dihydro-1,4-benzoxazepin-5-one]
20 | 31 nM | 200 nM | Cc1c(-c2ncnc3[nH]c(-c4ccc(CN5CCN(C)CC5)cc4)cc23)cccc1N1CCOc2cc(C3CC3)ccc2C1=O [Example B-2]
21 | 5 nM | 53 nM | CN1CCCC(n2cc(-c3cc4c(-c5cccc(N6CCOc7cc(C8CC8)ccc7C6=O)c5CO)ncnc4[nH]3)cn2)C1 [Example D-6, 8-cyclopropyl-4-[2-(hydroxymethyl)-3-[6-[1-(1-methyl-3-piperidyl)pyrazol-4-yl]-7H-pyrrolo[2,3-d]pyrimidin-4-yl]phenyl]-2,3-dihydro-1,4-benzoxazepin-5-one]

Reference: patent publication US9233983B2, “Substituted hetero-bicyclic compounds, compositions and medicinal applications thereof” (ADVINUS THERAPEUTICS LIMITED, priority 2012, dated 2016)
